We go through 3 substances from patent US20070072209A1, “Methods of treatment and diagnosis of Kaposi's sarcoma (KS) and KS related diseases” (priority 2005, published 2007).

In series [1] the test system is KSHV-infected DMVEC. As to the kind of experiment: XTT assay of PMO-AS effect on post-confluent growth (Example 5). It counts as cell-based, human. Conditions: 72 hours. The procedure:
XTTAssay. Metabolism of XTT to a water-soluble formazan dye by viable cells gives a quantitative determination of relative cell number. The XTT assay was thus used to quantitatively assess the effect of PMO-AS treatment on KSHV focus formation and post-confluent growth. For these assays, KSHV-infected and uninfected DMVEC were seeded into 96-well flat-bottom Primaria trays at 10^4 cells/well, loaded with PMO-AS after overnight equilibration, and cultured for 72 hrs. For the final 4 hours of culture, 50 μl XTT (Roche Diagnostics, Indianapolis, Ind.) was added to each well and the optical density (OD) of each well was recorded by an ELISA reader between 450 and 500 nm. To verify efficient (>80%) PMO-AS uptake in the 96-well format, cells were treated with a FITC-tagged morpholino (FITC-PMO) and uptake visually assessed under a fluorescence microscope. This FITC-PMO also served as a control for any non-specific effect of the PMO-AS:EPEI complex on DMVEC growth. As a positive control, cells were treated with a c-Kit PMO-AS previously shown to inhibit KSHV-induced transformation (Moses, 2002). For NIH 3T3 cells, the XTT assay was performed in 96-well plates at a cell density of 10^4 cells/well, and OD measured at 48 hours.
In view of the above-described effects of Neuritin- and RDC1-specific PMO-AS in inhibiting focus formation of KSHV-infected DMVEC, a further determination was made to determine whether such inhibition correlated with reduced cellular proliferation. Such reduced cellular proliferation would be expected, because the development of multilayered cell foci requires additional cell growth that would not occur if contact inhibition was maintained. A colorimetric cellular proliferation assay was used to assess cell growth. […] This growth can be accurately assessed by monitoring the metabolism of XTT added to each well by measurement of optical density at […] (e.g., 4 hours post XTT addition). […] To verify efficient (>80%) PMO-AS uptake in the 96-well format, cells were treated with a FITC-tagged PMO-AS (FITC-PMO) and uptake visually assessed under a fluorescence microscope. […]
In general terms: Tetrazolium assays rely on reduction of a dye to a coloured formazan, in cell work by metabolically active cells.

The subject of series [2] is KSHV-infected DMVEC. Put plainly: PMO antisense inhibition of KSHV-induced spindle cell and foci formation (Example 3). The class given is cell-based, human. The conditions noted are these: for Extent of PMO-induced Inhibition of Spindle Cell Formation: KSHV-infected DMVEC loaded with gene-specific PMO antisense + EPEI; for Phenotype Inhibition (inhibition of spindle cell formation) / KSHV-induced spindle cell / foci formation (in words): KSHV-infected DMVEC; for Phenotype Inhibition (inhibition of spindle cell formation): gene-specific PMO antisense; for KSHV-induced spindle cell / foci formation (in words): PMO antisense, c-Kit: 1.25 nmol PMO + 2.5 μl EPEI per 35 mm dish. An excerpt:
Antisense Gene Silencing using PMOs. […] Silencing of such genes precluded progression into the transformed phenotype when silencing occurred prior to transformation, or induced reversion to the normal state when silencing occurred after induction of the transformed state (see TABLE 2 below).
Introduction of antisense PMO into KSHV-infected DMVEC. Antisense PMO molecules, for delivery purposes, are typically converted to a paired duplex together with a partially complementary cDNA oligonucleotide in the weakly basic delivery reagent ethoxylated polyethylenimine (EPEI) (Summerton, supra). The anionic complex binds to the cell surface, is taken up by endocytosis and eventually released into the cytosol. A protocol for optimum uptake of antisense PMO in immortalized DMVEC was developed using a modification of the EPEI method. Briefly, uninfected, immortalized DMVECs were incubated for 3 hours at 37° C. with 0.6 nmol/well FITC-PMO complexed with EPEI according to the manufacturer's instructions (GeneTools, LLC, One Summerton Way, Philomath, Oreg. 97370) (e.g., 1.25 nMol oligomer with 2.5 μl EPEI reagent per 35 mm dish, allowing for sufficient antisense uptake without non-specific EPEI-induced toxicity). The PMOs were labeled with FITC to allow for monitoring of loading efficiency by fluorescence microscopy.
Specifically, DMVEC were infected with KSHV, plated in 35 mm dishes and allowed to grow to about 90% confluence. For treatment, KSHV-infected cells were treated with the anti-c-Kit PMO-antisense oligomer-EPEI delivery reagent complex and incubated for 3 hours at 37° C. in serum-free medium to allow for oligomer uptake. A titration experiment testing a range of different oligomer/EPEI volumes was used to determine that loading 1.25 nmol oligomer with 2.5 μl EPEI reagent per 35 mm dish allowed efficient antisense uptake without non-specific EPEI-induced toxicity. Control (mock-treated) DMVEC cultures were loaded with EPEI reagent and sterile water or sterile water alone. Upon removal of the oligomer-EPEI solution, cell monolayers were rinsed in serum-free medium fed with complete medium and examined daily for one week by phase microscopy for evidence of phenotypic change.

“KIT: FITC-labeled PMO targeting the start codon of c-Kit, CGCCTCTCATCGCGGTAGCTGCG (SEQ ID NO:21) (all phosphorodiamidate morpholino (PMO); FITC label attached, position not given here)”: the “effect on cell growth in XTT assay (in words)” value (“effect on cell growth” for short) in series [1] is given as “dramatically inhibited cell growth”. Moreover, in series [2], the “Extent of PMO-induced Inhibition of Spindle Cell Formation” value is recorded as “full”, the “Phenotype Inhibition (inhibition of spindle cell formation)” value (from here on “Phenotype Inhibition”) is reported as “Full” and the “KSHV-induced spindle cell / foci formation (in words)” value was “fully reversed spindle cell formation”. Further, in series [2] (listed as c-Kit), the “KSHV-induced spindle cell / foci formation (in words)” value is recorded as “did not develop foci”.
In the case of “Neuritin: PMO antisense to Neuritin, TTAACTCCCATCCTACGTTTAGTCA (SEQ ID NO:19) (all phosphorodiamidate morpholino (PMO); delivered paired with partially complementary DNA oligo (Special Delivery))”, the “effect on cell growth” value in series [1] was “dramatically inhibited cell growth”. For the same substance, in series [2], the “Extent of PMO-induced Inhibition of Spindle Cell Formation” value is listed as “full”, the “Phenotype Inhibition” value is given as “Full” and the “KSHV-induced spindle cell / foci formation (in words)” value is reported as “fully reversed spindle cell formation”.
As for “RDC-1: PMO antisense to RDC-1, GAAGAGATGCAGATCCATCGTTCTG (SEQ ID NO:15) (all phosphorodiamidate morpholino (PMO); delivered paired with partially complementary DNA oligo (Special Delivery))”, in series [1], the “effect on cell growth” value is “dramatically inhibited cell growth”. Further, in series [2], the “Extent of PMO-induced Inhibition of Spindle Cell Formation” value is “full”; the “Phenotype Inhibition” value is “full and Full”; the “KSHV-induced spindle cell / foci formation (in words)” value is “fully reversed spindle cell formation”.
